In US20210318318A1, “Kinase Activity In Tumors” (Institute For Cancer Research d/b/a The Research Institute …, priority 2018, published 2021):

How the values were obtained:
[1] = tested on: FAK1, MLC and Paxillin phosphorylation; FAK1 and CHEK1 protein levels; experiment: Western blot of signaling in inhibitor-treated HGSOC cells; assay type: cell-based, human; settings: HGSOC (COV362) cells, increasing doses 0.5, 1 or 3 μM, 48 hours
Method: COV362 cells were treated with 0.5, 1 or 3 μM of A-674563 or SB-772077 for 48 hours and signaling monitored by western blot.
Samples were harvested in MIB lysis buffer, subjected to SDS-PAGE […] and transferred to PVDF membranes before western blotting with primary antibodies. For pMYPT and pMLC blots, cells were harvested in a buffer containing 1% (w/v) SDS, 50 mM Tris pH 7.5 supplemented with protease and phosphatase inhibitors buffer and were passed through QIAshredder columns (Qiagen, 79654), (Unbekandt et al., Cell Commun. Signal., 2014, 12, 54). For the list of primary antibodies used, see Table 4. Secondary HRP-anti-rabbit and HRP-anti-mouse were obtained from ThermoFisher Scientific. SuperSignal West Pico and Femto Chemiluminescent Substrates (Thermo) were used to visualize blots.

ROCK2 = target: T1, ROCK2 (Homo sapiens, UniProt O75116); experiment: MIB/MS kinome profiling of inhibitor-treated OVSAHO cells; assay type: cell-based; settings: 2 μM, 4 hours
T1 construct: endogenous in cells; host or cells: OVSAHO
T1 sequence (O75116 whole entry): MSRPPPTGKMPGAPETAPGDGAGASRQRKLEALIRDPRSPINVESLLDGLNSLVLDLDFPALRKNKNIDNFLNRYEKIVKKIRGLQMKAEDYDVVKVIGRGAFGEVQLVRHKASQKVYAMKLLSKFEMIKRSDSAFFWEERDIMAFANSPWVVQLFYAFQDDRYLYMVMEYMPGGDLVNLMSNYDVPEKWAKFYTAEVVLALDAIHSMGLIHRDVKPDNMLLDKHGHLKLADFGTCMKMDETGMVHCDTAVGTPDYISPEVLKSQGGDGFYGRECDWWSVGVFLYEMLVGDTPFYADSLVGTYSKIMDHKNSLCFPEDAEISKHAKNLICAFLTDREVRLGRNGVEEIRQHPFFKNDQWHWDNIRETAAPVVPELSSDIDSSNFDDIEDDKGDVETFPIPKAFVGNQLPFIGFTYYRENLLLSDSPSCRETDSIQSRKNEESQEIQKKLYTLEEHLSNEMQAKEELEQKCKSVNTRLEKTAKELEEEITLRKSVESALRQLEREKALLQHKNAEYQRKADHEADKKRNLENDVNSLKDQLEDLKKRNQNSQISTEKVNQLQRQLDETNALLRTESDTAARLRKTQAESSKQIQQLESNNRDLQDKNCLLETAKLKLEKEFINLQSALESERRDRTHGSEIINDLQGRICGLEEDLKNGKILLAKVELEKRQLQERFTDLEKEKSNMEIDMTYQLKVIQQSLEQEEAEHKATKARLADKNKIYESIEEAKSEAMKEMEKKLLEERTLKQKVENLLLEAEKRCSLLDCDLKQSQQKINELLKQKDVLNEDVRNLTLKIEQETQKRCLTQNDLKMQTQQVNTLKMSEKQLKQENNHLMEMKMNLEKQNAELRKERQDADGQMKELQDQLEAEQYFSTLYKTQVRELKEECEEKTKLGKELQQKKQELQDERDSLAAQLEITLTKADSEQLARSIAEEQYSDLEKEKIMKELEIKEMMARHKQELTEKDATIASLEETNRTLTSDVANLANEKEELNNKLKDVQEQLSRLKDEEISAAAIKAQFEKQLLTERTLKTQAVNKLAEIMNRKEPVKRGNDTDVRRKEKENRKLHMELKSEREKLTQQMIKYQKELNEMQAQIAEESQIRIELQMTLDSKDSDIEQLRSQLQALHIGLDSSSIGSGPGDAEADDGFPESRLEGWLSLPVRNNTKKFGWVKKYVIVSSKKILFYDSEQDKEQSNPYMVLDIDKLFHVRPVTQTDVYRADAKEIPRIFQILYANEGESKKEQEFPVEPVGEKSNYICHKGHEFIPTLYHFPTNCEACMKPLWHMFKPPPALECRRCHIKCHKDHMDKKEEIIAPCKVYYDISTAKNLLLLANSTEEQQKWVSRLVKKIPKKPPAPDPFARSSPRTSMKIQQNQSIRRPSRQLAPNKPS
Method: (§1) OVSAHO cells were treated with 2 μM of inhibitor for 4 hours and analyzed by MIB/MS. Scatterplot depicts difference in kinase MIB-binding of drug treated relative to control DMSO as determined by Students T-test.
(§2) MIB-based kinome profiling was performed on several of these molecules in HGSOC cells to determine kinome-wide inhibition profiles.
Experiments using MIB/MS were performed as previously described (Duncan et al., Cell, 2012, 149, 307-321; and Kurimchak et al., Cell Reports, 2016, 16, 1273-1286). Briefly, cells or tumors were lysed on ice in buffer containing 50 mM HEPES (pH 7.5), 0.5% Triton X-100, 150 mM NaCl, 1 mM EDTA, 1 mM EGTA, 10 mM sodium fluoride, 2.5 mM sodium orthovanadate, 1× protease inhibitor cocktail (Roche), and 1% each of phosphatase inhibitor cocktails 2 and 3 (Sigma). Particulate was removed by centrifugation of lysates at 13,000 rpm for 10 minutes at 4° C. and filtration through 0.2 μm syringe filters. Protein concentrations were determined by BCA analysis (Thermo). To compare kinome signatures within and across such large sample sizes, a super-SILAC method was designed (Neubert et al., Nat. Meth., 2010, 7, 361-362) consisting of a cocktail of cancer cell lines that encompasses the activity of the “cancer kinome” to be used as a control for individual samples. […] An equal amount of the HKS was added to the non-labeled sample (cell, tumor or normal tissue) providing a quantitative strategy to compare kinome activity/levels across samples, amongst treatments and, importantly, across time. […]
(§3) Proteolytic peptides were resuspended in 0.1% formic acid and separated with a Thermo RSLC Ultimate 3000 on a Thermo Easy-Spray C18 PepMap 75 μm×50 cm C-18 2 μm column with a 240 minute gradient of 4-25% acetonitrile with 0.1% formic acid at 300 nL/min and 50° C. Eluted peptides were analyzed by a Thermo Q Exactive plus mass spectrometer utilizing a top 15 methodology in which the 15 most intense peptide precursor ions were subjected to fragmentation.

MRCKB = target: T2, MRCKB (Homo sapiens, UniProt Q9Y5S2); experiment: as above; assay type: cell-based; settings: 2 μM, 4 hour treatment
T2 construct: endogenous in cells; host or cells: OVSAHO
T2 sequence (Q9Y5S2 whole entry): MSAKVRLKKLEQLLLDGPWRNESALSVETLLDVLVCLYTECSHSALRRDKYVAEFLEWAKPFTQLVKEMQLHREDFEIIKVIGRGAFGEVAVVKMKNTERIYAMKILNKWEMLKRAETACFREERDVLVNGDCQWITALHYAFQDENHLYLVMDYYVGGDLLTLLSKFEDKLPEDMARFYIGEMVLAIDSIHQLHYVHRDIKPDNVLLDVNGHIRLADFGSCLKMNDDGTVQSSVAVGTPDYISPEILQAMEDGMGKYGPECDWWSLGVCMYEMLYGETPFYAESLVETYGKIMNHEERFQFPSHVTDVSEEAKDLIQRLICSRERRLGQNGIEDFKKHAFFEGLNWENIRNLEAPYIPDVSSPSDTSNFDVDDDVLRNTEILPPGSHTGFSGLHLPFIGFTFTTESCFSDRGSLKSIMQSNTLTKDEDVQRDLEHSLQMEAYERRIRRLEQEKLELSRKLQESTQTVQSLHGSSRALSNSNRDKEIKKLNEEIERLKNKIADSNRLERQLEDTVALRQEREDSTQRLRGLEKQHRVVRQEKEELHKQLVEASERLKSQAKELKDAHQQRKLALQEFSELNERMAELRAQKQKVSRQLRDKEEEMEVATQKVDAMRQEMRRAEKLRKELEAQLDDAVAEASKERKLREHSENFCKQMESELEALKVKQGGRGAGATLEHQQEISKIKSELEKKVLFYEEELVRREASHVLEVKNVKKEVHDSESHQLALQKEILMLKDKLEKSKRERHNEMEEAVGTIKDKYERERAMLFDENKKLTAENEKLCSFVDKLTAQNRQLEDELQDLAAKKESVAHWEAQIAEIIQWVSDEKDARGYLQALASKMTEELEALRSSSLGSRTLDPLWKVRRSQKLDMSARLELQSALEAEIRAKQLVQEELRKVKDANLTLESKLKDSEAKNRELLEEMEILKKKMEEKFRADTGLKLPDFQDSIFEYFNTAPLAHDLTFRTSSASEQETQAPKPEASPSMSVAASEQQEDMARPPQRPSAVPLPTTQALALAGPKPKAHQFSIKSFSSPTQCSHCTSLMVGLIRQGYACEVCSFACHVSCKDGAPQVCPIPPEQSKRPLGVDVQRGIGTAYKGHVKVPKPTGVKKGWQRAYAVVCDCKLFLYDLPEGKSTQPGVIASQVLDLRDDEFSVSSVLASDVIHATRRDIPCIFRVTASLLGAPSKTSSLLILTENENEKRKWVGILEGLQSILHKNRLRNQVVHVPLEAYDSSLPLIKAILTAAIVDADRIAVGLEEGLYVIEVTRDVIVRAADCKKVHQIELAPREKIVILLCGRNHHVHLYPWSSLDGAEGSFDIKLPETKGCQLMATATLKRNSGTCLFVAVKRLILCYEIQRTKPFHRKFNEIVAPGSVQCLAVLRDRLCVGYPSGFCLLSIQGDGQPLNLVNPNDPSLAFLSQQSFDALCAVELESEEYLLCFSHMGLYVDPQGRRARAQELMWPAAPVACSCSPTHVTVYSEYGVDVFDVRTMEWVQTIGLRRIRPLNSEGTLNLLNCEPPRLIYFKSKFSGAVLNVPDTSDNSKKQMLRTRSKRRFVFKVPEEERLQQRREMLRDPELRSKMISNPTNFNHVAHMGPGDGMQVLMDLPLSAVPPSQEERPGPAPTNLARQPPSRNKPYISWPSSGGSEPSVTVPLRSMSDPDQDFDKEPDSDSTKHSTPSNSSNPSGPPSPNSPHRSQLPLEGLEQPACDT
Method: (§4) OVSAHO cells were treated with inhibitors at a dose of 2 μM for 4 hours and kinase inhibition profiles determined by MIB/MS. Bar graph depicts % of kinase bound to MIBs relative to DMSO control as determined by label free quantitation.
as §1, §2
(§5) Experiments using MIB/MS were performed as previously described (Duncan et al., Cell, 2012, 149, 307-321; and Kurimchak et al., Cell Reports, 2016, 16, 1273-1286). Briefly, cells or tumors were lysed on ice in buffer containing 50 mM HEPES (pH 7.5), 0.5% Triton X-100, 150 mM NaCl, 1 mM EDTA, 1 mM EGTA, 10 mM sodium fluoride, 2.5 mM sodium orthovanadate, 1× protease inhibitor cocktail (Roche), and 1% each of phosphatase inhibitor cocktails 2 and 3 (Sigma). Particulate was removed by centrifugation of lysates at 13,000 rpm for 10 minutes at 4° C. and filtration through 0.2 μm syringe filters. Protein concentrations were determined by BCA analysis (Thermo). To compare kinome signatures within and across such large sample sizes, a super-SILAC method was designed (Neubert et al., Nat. Meth., 2010, 7, 361-362) consisting of a cocktail of cancer cell lines that encompasses the activity of the “cancer kinome” to be used as a control for individual samples. Five cancer cell lines were selected from the NCI-60 panel (UACC257, MOLT4, COL0205, ACHN and PC3) that differed in their origin, gene expression patterns and mutation status. The cancer cell lines were labeled using SILAC and mixed equally providing a diverse SILAC ([^13C6,^15N4] arginine (Arg^10) and […] (Lys^8)) heavy kinome reference standard (HKS) to be used repeatedly in kinome profiling assays. An equal amount of the HKS was added to the non-labeled sample (cell, tumor or normal tissue) providing a quantitative strategy to compare kinome activity/levels across samples, amongst treatments and, importantly, across time. […]
as §3

MRCKA = MRCKA (Homo sapiens, UniProt Q5VT25); experiment: as above; assay type: cell-based; set-up: endogenous in cells; host or cells: OVSAHO; settings: 2 μM, 4 hour treatment
Chain of MRCKA (Q5VT25 whole entry): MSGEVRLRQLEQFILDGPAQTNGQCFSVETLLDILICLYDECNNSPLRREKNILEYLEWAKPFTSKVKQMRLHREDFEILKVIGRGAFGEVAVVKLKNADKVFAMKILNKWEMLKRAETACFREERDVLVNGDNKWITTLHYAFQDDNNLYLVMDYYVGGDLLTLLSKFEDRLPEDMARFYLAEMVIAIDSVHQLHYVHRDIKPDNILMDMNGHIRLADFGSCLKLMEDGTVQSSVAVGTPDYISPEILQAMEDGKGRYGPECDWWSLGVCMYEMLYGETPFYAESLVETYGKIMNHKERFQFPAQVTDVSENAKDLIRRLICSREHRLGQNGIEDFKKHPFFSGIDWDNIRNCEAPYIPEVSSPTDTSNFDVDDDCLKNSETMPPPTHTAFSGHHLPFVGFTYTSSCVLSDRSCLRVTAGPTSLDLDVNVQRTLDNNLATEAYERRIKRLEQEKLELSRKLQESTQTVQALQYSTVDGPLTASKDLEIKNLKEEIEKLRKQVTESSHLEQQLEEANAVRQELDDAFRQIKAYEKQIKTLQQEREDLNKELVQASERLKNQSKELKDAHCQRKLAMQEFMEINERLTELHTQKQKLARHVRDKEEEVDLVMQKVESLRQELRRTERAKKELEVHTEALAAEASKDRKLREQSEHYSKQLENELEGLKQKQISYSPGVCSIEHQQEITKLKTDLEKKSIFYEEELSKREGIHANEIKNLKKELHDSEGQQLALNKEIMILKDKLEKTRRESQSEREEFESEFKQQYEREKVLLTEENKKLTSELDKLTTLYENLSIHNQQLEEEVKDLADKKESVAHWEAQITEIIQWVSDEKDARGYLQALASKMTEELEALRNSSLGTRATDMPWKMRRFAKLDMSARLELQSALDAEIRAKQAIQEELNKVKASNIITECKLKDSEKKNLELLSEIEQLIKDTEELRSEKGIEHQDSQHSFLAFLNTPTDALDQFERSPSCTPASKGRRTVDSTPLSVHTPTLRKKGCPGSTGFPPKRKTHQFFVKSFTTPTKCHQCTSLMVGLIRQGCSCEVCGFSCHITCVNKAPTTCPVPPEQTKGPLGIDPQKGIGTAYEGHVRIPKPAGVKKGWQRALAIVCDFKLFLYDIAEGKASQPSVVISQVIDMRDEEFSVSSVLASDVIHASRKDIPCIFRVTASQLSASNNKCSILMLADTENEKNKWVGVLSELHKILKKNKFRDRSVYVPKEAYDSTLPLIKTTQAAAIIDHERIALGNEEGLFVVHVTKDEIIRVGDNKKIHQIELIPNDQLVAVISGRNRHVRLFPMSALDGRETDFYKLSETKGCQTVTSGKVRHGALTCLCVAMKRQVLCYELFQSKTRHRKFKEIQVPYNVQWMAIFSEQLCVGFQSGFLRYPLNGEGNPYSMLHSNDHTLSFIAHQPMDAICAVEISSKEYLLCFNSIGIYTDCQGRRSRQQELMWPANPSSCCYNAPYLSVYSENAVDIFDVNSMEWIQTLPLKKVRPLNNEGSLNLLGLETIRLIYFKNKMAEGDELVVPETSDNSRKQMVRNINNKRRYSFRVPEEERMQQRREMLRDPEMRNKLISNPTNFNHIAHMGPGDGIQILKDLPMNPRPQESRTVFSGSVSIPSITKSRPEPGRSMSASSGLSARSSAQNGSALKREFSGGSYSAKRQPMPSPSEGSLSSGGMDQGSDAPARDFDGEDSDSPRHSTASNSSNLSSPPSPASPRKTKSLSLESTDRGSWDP
Method: as §4, §1, §2, §5, §3

OVCAR4 = experiment: Short-term growth assay (CellTiter-Glo cell viability), kinase inhibitors; assay type: cell-based, human; settings: drug 1.2 uM
Method: (§6) Cell viability was determined by Cell Titer Glo analysis.
(§7) To explore the therapeutic potential of the HGSOC kinome signature, a detailed molecular analysis of protein levels/activity, growth and survival functions was carried out in a panel of recently validated HGSOC cell lines (Coscia et al., Nat. Commun., 2016, 7, 12645) that harbor commonly encountered HGSOC mutations and genetic rearrangements (see, FIG. 5A).
(§8) For short-term growth assays, 3000-5000 cells were plated per well in 96-well plates and allowed to adhere and equilibrate overnight. Drug was added the following morning and after 120 hours of drug treatment, cell viability was assessed using the CellTiter-Glo Luminescent cell viability assay according to manufacturer (Promega). Students t tests were performed for statistical analyses and p values ≤0.05 were considered significant. For colony formation assays, cells were plated in 24-well dishes (3000-5000 cells per well) and incubated overnight before continuous drug treatment for 14 days, with drug and media replaced twice weekly. At the end of treatment, cells were rinsed with PBS and fixed with chilled methanol for 10 minutes at −20° C. Methanol was removed by aspiration, and cells were stained with 0.5% crystal violet in 20% methanol for 20 minutes at room temperature, washed with distilled water, and scanned.

OVSAHO = experiment: as above; assay type: cell-based, human; settings: drug 1.2 uM
Method: as §6, §7, §8

SNU-119 = experiment: as above; assay type: cell-based, human; settings: drug 1.2 uM
Method: as §6, §7, §8

Kuramochi = experiment: as above; assay type: cell-based, human; settings: drug 1.2 uM
Method: as §6, §7, §8

COV362 = experiment: as above; assay type: cell-based, human; settings: drug 1.2 uM
Method: as §6
COV362 cells were treated with increasing concentrations of A-674563 and cell viability assessed by Cell Titer Glo according to manufacturer's instructions. Data represent the mean of six replicates.
as §7, §8

HGSOC cells [2] = experiment: Cell viability of HGSOC cell line panel (Cell Titer Glo); assay type: cell-based, human; settings: increasing concentrations; Cell Titer Glo
Method: Cells were treated with increasing concentrations of PF-03758309 and cell viability assessed by Cell Titer Glo according to manufacturer's instructions. Data represent the mean of six replicates.
Cell viability was assessed by Cell Titer Glo according to manufacturing. Data represent the mean of six replicates.
as §8

OVCAR4 cells = experiment: Drug growth inhibition in cells depleted of dark kinases by siRNA (Cell Titer Glo); assay type: cell-based, human; settings: increasing doses of drug
Method: OVCAR4 cells were transfected with control nontargeting or dark kinase siRNAs and treated with escalating doses of appropriate drugs.
(§9) To explore if blocking dark kinases AAK1, STK38 or MRCKA activity in combination with current therapies improves drug efficacy, OVCAR4 cells depleted of AAK1, STK38 or MRCKA were treated with increasing doses of carboplatin, olaparib, JQ1, or a variety of kinase inhibitors in clinical trials for HGSOC.
(§10) siRNA transfections were performed using 25 nM siRNA duplex and the reverse transfection protocol. 3000-5000 cells per well were added to 96 well plates with media containing the siRNA and transfection reagent (Lipofectamine RNAiMax) according to the manufacturer's instructions. In experiments where inhibitors were used, the inhibitor was added at the time of transfection. Cells were allowed to grow for 72-120 hours post-transfection prior to CellTiter Glo (Promega) analysis. Two-to-three independent experiments were performed with each cell line and siRNA. Students t tests were performed for statistical analyses and p values ≤0.05 were considered significant. For western blot studies, the same procedure was performed with volumes and cell numbers proportionally scaled to a 60 mm or 10 cm dish, and cells were collected 24-72 hours post-transfection. siRNA product numbers and manufacturers are listed in Table 5.

HGSOC cells [3] = experiment: Drug response in cells depleted of MRCKA by siRNA (Cell Titer Glo, cleaved PARP blots); assay type: cell-based, human; settings: HGSOC cells; increasing doses
Method: Cells transfected with control or MRKCA siRNAs were treated with increasing doses of carboplatin. Cell viability was assessed by Cell Titer Glo according to manufacturer's instructions. Data represent the mean of six replicates. GR50 were determined using PRISM.
Cells transfected with control or MRKCA siRNAs were treated with increasing doses of olaparib. Cell viability was assessed by Cell Titer Glo according to manufacturer's instructions. Data represent the mean of six replicates. GR50 were determined using PRISM.
as §9, §10

Compound | FAK1, MLC and Paxillin phosphorylation [1] | MIB-binding of ROCK2 (ROCK2) | MIB-binding of MRCKB relative to DMSO (MRCKB) | MIB-binding of MRCKA relative to DMSO (MRCKA) | Kinase inhibition profile of HGSOC cells (growth inhibition, Cell Titer Glo) (OVCAR4) | Kinase inhibition profile of HGSOC cells (growth inhibition, Cell Titer Glo) (OVSAHO) | Kinase inhibition profile of HGSOC cells (growth inhibition, Cell Titer Glo) (SNU-119) | Kinase inhibition profile of HGSOC cells (growth inhibition, Cell Titer Glo) (Kuramochi) | Kinase inhibition profile of HGSOC cells (growth inhibition, Cell Titer Glo) (COV362) | cell viability of HGSOC cells (HGSOC cells [2]) | growth inhibition by drug with MRCKA knockdown relative to non-targeting control siRNA (OVCAR4 cells) | growth inhibitory and apoptotic response to drug with MRCKA knockdown (HGSOC cells [3])
CCn1c(-c2nonc2N)nc2cncc(C(=O)N3CC[C@H](N)C3)c21 [SB-772077-B] | reduced | reduction in MIB-binding | – | – | – | – | – | – | – | – | – | –
CS(=O)(=O)CCNCc1ccc(-c2ccc3ncnc(Nc4ccc(OCc5cccc(F)c5)c(Cl)c4)c3c2)o1 [Lapatinib] | – | – | no effect | no effect | 0.974 | 1.053 | 0.15 | 0.9704 | 0.9973 | – | – | –
Cc1nc(Nc2[nH]nc3c2CN(C(=O)N[C@H](CN(C)C)c2ccccc2)C3(C)C)c2sccc2n1 [PF03758039] | – | – | – | – | 0.2063 | 0.659 | 0.3505 | 0.4783 | 0.4916 | reduced cell viability to the greatest extent in OVCAR4 and KURMAOCHI cells | – | –
O=C(c1cc(Cc2n[nH]c(=O)c3ccccc23)ccc1F)N1CCN(C(=O)C2CC2)CC1 [olaparib] | – | – | – | – | – | – | – | – | – | – | enhanced growth inhibition | improved the growth inhibitory and apoptotic response
